Patent US20230109801A1 (Blue Oak Pharmaceuticals, Inc., priority 2020, published 2023)
Structures can show the parent of a compound that is named as a salt.

Test system: mice
Assay: SmartCube in vivo neuropharmacological behavioral assay
Details: for minimal effective dose: Mus musculus, ip, dose having 50% or more total activity in SmartCube, i.p., read-out: MED (minimal effective dose); for AD: antidepressant, percent probability / AG: analgesic, percent probability / AP: antipsychotic, percent probability / AX: anxiolytic, percent probability / CE: cognitive enhancer, percent probability / HA: hallucinogenic, percent probability / MS: mood stabilizer, percent probability / PS, percent probability / SD: sedative hypnotic, percent probability / SE: side effects, percent probability / UN: uncharacterized CNS activity, percent probability / XG: anxiogenic, percent probability: SmartCube, i.p. 15 min before test, at the MED
Protocol: The compounds were evaluated for their CNS related properties (e.g., the treatment, prevention or diagnosis of CNS or CNS-related disorders and/or amelioration of symptoms) using neuropharmacological screening methods described in S. L. Roberts et al., Front. Neurosci. 2011, 5:103 (hereinafter referred to as “Roberts,” the contents of which are incorporated herein by reference in their entirety).
According to Roberts, intact systems are useful in detecting improvement in disease-relevant endpoints, because psychiatric diseases generally result from disorders of cell-cell communication or circuitry. The endpoints are typically behavioral in nature, often requiring human observation and interpretation. In order to test multiple compounds for behavioral effects relevant to neurological and psychiatric diseases and disorders, PsychoGenics, Inc. (Paramus, N.J. “PGI”) developed SmartCube®, an automated system in which behaviors of compound-treated mice are captured by digital video and analyzed with computer algorithms to facilitate testing of multiple compounds for behavioral effects relevant to psychiatric disease. (D. Brunner et al., Drug Discov. Today 2002, 7:S107-S112; Alexandrov et al., Eur. J. Pharmacol. 2015, 753:127-134; the contents of each of which are incorporated herein by reference in their entirety).
The SmartCube® system is described in Example 2.2 of U.S. Pat. No. 9,758,529 and Example 289 of WIPO Publication No. WO2018/023070, the contents of each of which are incorporated herein by reference in their entirety.
According to the present disclosure, compounds identified may be evaluated using the SmartCube® system. The results of such analysis correlate certain patterns or combinations of behaviors to CNS effects along a percent probability scale of 0-100 where zero (O) reflects the limit of quantitation (LOQ).
The compounds of the present disclosure were evaluated for their CNS related properties (e.g., the treatment, prevention or diagnosis of CNS or CNS-related disorders and/or amelioration of symptoms) using neuropharmacological screening methods described in S. L. Roberts et al., Front. Neurosci. 2011, 5:103 (hereinafter referred to as “Roberts,” the contents of which are incorporated herein by reference in their entirety).
The SmartCube® system described herein was utilized to compare the behavioral signature of a test compound to a database of behavioral signatures obtained using a large set of diverse reference compounds (including but not limited to antipsychotics, anxiolytics, antidepressants and bipolar disorder medicine), thereby predicting the neuropharmacological effects of a test compound by similarity to major classes of compounds. It produces an activity signature indicating the probability that the activity of the test compound at the administered dose matches a given class of neuropharmacological agents. The test compound is simultaneously compared against multiple classes of agents; thus, a separate probability is generated for each behavioral effect measured (such as but not limited to anxiolytic activity and analgesic activity).
The compounds of the present disclosure were dissolved in a mixture of Pharmasolve™ (N-methyl-2-pyrrolidone (NMP)) and were injected i.p. 15 min. before the behavioral test. For each compound, injections were administered at different dose levels (e.g., 0.3, 1, 3, 10 and 30 mg per kg (mpk)). A compound's minimal effective dose (MED; see Table 3) is a measure of the compound's potency. The MED was defined as the dose (in mpk) having 50% or more total activity in SmartCube®. For each behavioral effect measured, results at the MED are presented. CNS activities of the compounds were recorded (see Table 2). In Table 1, a key to the percent probabilities (probability×100) for each behavioral effect (“X”) are defined provided, where LOQ is the limit of quantification.

| SMILES | minimal effective dose [mg/kg] | AD: antidepressant, percent probability | AG: analgesic, percent probability | AP: antipsychotic, percent probability | AX: anxiolytic, percent probability | CE: cognitive enhancer, percent probability | HA: hallucinogenic, percent probability | MS: mood stabilizer, percent probability | PS, percent probability | SD: sedative hypnotic, percent probability | SE: side effects, percent probability | UN: uncharacterized CNS activity, percent probability | XG: anxiogenic, percent probability |
| --- | --- | --- | --- | --- | --- | --- | --- | --- | --- | --- | --- | --- | --- |
| CC(C)N1C2CCC1c1ccccc12 [Compound 42, 11-(Propan-2-yl)-11-azatricyclo[6.2.1.0^2,7]undeca-2,4,6-triene hydrochloride] | 10 to 30 | ++ (5% ≤ X < 25%) | ++ (5% ≤ X < 25%) | + (LOQ ≤ X < 5%) | + (LOQ ≤ X < 5%) | + (LOQ ≤ X < 5%) | ++ (5% ≤ X < 25%) | + (LOQ ≤ X < 5%) | +++ (25% ≤ X < 50%) | + (LOQ ≤ X < 5%) | + (LOQ ≤ X < 5%) | ++ (5% ≤ X < 25%) | + (LOQ ≤ X < 5%) |
| COc1cccc2c1C1CCC2N1C(C)C (centres unmarked) [Compound 18, 3-Methoxy-11-(propan-2-yl)-11-azatricyclo[6.2.1.0^2,7]undeca-2,4,6-triene hydrochloride] | 10 to 30 | ++ (5% ≤ X < 25%) | + (LOQ ≤ X < 5%) | + (LOQ ≤ X < 5%) | ++ (5% ≤ X < 25%) | ++ (5% ≤ X < 25%) | + (LOQ ≤ X < 5%) | + (LOQ ≤ X < 5%) | + (LOQ ≤ X < 5%) | ++ (5% ≤ X < 25%) | +++ (25% ≤ X < 50%) | + (LOQ ≤ X < 5%) | + (LOQ ≤ X < 5%) |
| CC(C)N1C2C=CC1c1ccccc12 [Compound 53, 11-(Propan-2-yl)-11-azatricyclo[6.2.1.0^2,7]undeca-2,4,6,9-tetraene hydrochloride] | 10 to 30 | ++ (5% ≤ X < 25%) | ++ (5% ≤ X < 25%) | + (LOQ ≤ X < 5%) | ++ (5% ≤ X < 25%) | + (LOQ ≤ X < 5%) | + (LOQ ≤ X < 5%) | + (LOQ ≤ X < 5%) | ++ (5% ≤ X < 25%) | + (LOQ ≤ X < 5%) | + (LOQ ≤ X < 5%) | ++ (5% ≤ X < 25%) | + (LOQ ≤ X < 5%) |
| CC(C)N1C2C=CC1c1cc(F)c(F)cc12 [Compound 6, 4,5-Difluoro-11-(propan-2-yl)-11-azatricyclo[6.2.1.0^2,7]undeca-2,4,6,9-tetraene hydrochloride] | > 30 | ++ (5% ≤ X < 25%) | ++++ (50% ≤ X <1 00%) | + (LOQ ≤ X < 5%) | + (LOQ ≤ X < 5%) | + (LOQ ≤ X < 5%) | + (LOQ ≤ X < 5%) | + (LOQ ≤ X < 5%) | ++ (5% ≤ X < 25%) | + (LOQ ≤ X < 5%) | + (LOQ ≤ X < 5%) | + (LOQ ≤ X < 5%) | + (LOQ ≤ X < 5%) |
| CC(C)N1C2CCC1c1cc(F)c(F)cc12 [Compound 8, 4,5-difluoro-11-(propan-2-yl)-11-azatricyclo[6.2.1.0^2,7]undeca-2(7),3,5-triene hydrochloride] | 10 to 30 | + (LOQ ≤ X < 5%) | ++ (5% ≤ X < 25%) | + (LOQ ≤ X < 5%) | ++ (5% ≤ X < 25%) | + (LOQ ≤ X < 5%) | + (LOQ ≤ X < 5%) | + (LOQ ≤ X < 5%) | + (LOQ ≤ X < 5%) | ++ (5% ≤ X < 25%) | ++++ (50% ≤ X <1 00%) | + (LOQ ≤ X < 5%) | + (LOQ ≤ X < 5%) |
| CC1CC2c3ccccc3C1N2C(C)C (centres unmarked) [Compound 51, 9-Methyl-11-(propan-2-yl)-11-azatricyclo[6.2.1.0^2,7]undeca-2,4,6-tri ene hydrochloride] | 1 to 10 | ++++ (50% ≤ X <1 00%) | + (LOQ ≤ X < 5%) | + (LOQ ≤ X < 5%) | ++ (5% ≤ X < 25%) | + (LOQ ≤ X < 5%) | ++ (5% ≤ X < 25%) | + (LOQ ≤ X < 5%) | ++ (5% ≤ X < 25%) | + (LOQ ≤ X < 5%) | + (LOQ ≤ X < 5%) | + (LOQ ≤ X < 5%) | + (LOQ ≤ X < 5%) |
| CC(C)C(C)N1C2C=CC1c1ccccc12 (centres unmarked) [Compound 58, 11-(3-Methylbutan-2-yl)-11-azatricyclo[6.2.1.0^2,7]undeca-2,4,6,9-tetraene hydrochloride] | > 30 | ++ (5% ≤ X < 25%) | + (LOQ ≤ X < 5%) | + (LOQ ≤ X < 5%) | + (LOQ ≤ X < 5%) | + (LOQ ≤ X < 5%) | + (LOQ ≤ X < 5%) | + (LOQ ≤ X < 5%) | + (LOQ ≤ X < 5%) | + (LOQ ≤ X < 5%) | + (LOQ ≤ X < 5%) | + (LOQ ≤ X < 5%) | + (LOQ ≤ X < 5%) |
| CC1=CC2c3ccccc3C1N2C(C)C (centres unmarked) [Compound 62, 9-Methyl-11-(propan-2-yl)-11-azatricyclo[6.2.1.0^2,7]undeca-2,4,6,9-tetraene hydrochloride] | 1 to 10 | ++ (5% ≤ X < 25%) | ++ (5% ≤ X < 25%) | + (LOQ ≤ X < 5%) | ++ (5% ≤ X < 25%) | + (LOQ ≤ X < 5%) | + (LOQ ≤ X < 5%) | + (LOQ ≤ X < 5%) | + (LOQ ≤ X < 5%) | + (LOQ ≤ X < 5%) | + (LOQ ≤ X < 5%) | ++ (5% ≤ X < 25%) | + (LOQ ≤ X < 5%) |
